A short description of series [1]: Selectivity index, ratio of IC50 for cytotoxicity against CHO cells by MTT assay to IC50 for antiplasmodial activity against multidrug-sensitive Plasmodium falciparum NF54 infected in human erythrocytes. In kind it is toxicity, cell-based. Conditions: Chinese hamster, read-out: Ratio IC50. Background: Tetrazolium assays rely on reduction of a dye to a coloured formazan, in cell work by metabolically active cells.

In series [2] the target is Voltage-gated inwardly rectifying potassium channel KCNH2 (Homo sapiens, UniProt Q12809). In words: Inhibition of human ERG by IonWorks patch clamp electrophysiology method. Background: The patch-clamp technique gives a direct electrical read-out from membranes.
Chain of Voltage-gated inwardly rectifying potassium channel KCNH2 (Q12809 whole entry): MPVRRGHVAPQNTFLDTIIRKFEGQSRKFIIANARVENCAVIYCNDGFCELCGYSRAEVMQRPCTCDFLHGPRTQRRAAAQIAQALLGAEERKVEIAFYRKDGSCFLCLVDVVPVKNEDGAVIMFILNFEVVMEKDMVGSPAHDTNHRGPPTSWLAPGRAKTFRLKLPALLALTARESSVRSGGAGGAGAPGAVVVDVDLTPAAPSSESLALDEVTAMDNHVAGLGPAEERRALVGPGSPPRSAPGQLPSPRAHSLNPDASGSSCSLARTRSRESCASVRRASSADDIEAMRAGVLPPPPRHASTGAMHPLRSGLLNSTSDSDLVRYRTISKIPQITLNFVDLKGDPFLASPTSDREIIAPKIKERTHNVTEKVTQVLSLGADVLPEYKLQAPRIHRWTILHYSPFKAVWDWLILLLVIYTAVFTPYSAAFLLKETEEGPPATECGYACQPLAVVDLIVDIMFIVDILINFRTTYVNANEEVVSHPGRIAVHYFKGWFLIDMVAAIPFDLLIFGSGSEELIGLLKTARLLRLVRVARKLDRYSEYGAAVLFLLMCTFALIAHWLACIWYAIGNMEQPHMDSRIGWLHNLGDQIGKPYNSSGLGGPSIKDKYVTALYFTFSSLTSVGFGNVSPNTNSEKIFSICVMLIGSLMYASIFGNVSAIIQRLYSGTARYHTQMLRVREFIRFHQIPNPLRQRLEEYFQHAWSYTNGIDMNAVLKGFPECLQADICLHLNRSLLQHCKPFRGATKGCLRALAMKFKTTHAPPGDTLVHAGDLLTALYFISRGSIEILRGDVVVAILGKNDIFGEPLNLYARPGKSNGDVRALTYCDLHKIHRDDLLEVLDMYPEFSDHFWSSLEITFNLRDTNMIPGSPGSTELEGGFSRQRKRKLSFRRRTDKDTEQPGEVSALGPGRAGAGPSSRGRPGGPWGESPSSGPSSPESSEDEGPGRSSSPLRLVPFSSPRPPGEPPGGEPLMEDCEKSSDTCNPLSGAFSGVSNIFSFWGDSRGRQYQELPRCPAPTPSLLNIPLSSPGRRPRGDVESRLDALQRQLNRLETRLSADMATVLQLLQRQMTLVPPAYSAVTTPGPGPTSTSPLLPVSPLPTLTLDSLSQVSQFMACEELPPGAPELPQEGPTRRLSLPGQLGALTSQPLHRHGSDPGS
In series [3] the test system is hERG (KCNH2). In words: Selectivity ratio of IC50 for inhibition of human ERG by IonWorks patch clamp electrophysiology method to IC50 for antiplasmodial activity against multidrug-sensitive Plasmodium falciparum NF54 infected in human erythrocytes. It counts as toxicity, cell-based. Particulars: read-out: Ratio IC50.
Series [4] is described as follows: Aqueous solubility of compound in pH 2 0.01M HCl incubated for 2 hrs under shaking condition by shake-flask method based HPLC-DAD analysis. In kind it is physicochemical.
Series [5] in a line: Aqueous solubility of compound in pH 6.5 PBS incubated for 2 hrs under shaking condition by shake-flask method based HPLC-DAD analysis. In kind it is physicochemical.
Series [6] is described as follows: Metabolic stability in human liver microsomes assessed as compound remaining at 0.1 uM measured after 30 mins in presence of cofactor NADPH by LC-MS/MS analysis. In kind it is ADME, Microsome. Conditions: read-out: Stabilty. (In general: Liver microsomes are vesicles of endoplasmic reticulum, rich in cytochrome P450 enzymes.)
Series [7] in a line: Metabolic stability in rat liver microsomes assessed as compound remaining at 0.1 uM measured after 30 mins in presence of cofactor NADPH by LC-MS/MS analysis. In kind it is ADME, Microsome. Particulars: read-out: Stabilty.
Series [8] is described as follows: Metabolic stability in mouse liver microsomes assessed as compound remaining at 0.1 uM measured after 30 mins in presence of cofactor NADPH by LC-MS/MS analysis. In kind it is ADME, Microsome. Conditions: read-out: Stabilty.
Series [9] relates to Plasmodium berghei. In words: Antiplasmodial activity against Plasmodium berghei ANKA infected in NMRI mouse assessed as reduction in parasitemia at 10 mg/kg, po qd for 4 consecutive days measured at day 7 post infection by flow cytometry analysis. It counts as functional. Conditions: time 4 day. Further details: scale not given: the % may be the effect or the level left.
Series [10] has as its system Plasmodium berghei. In words: Antiplasmodial activity against Plasmodium berghei ANKA infected in NMRI mouse assessed as reduction in parasitemia at 3 mg/kg, po qd for 4 consecutive days measured at day 7 post infection by flow cytometry analysis. It counts as functional. Further details: scale not given: the % may be the effect or the level left. Conditions: time 4 day.

Series [11] concerns Plasmodium berghei. In words: Antiplasmodial activity against Plasmodium berghei ANKA infected in NMRI mouse model assessed as mean survival days at 10 mg/kg, po qd for 4 consecutive day. Conditions: time 4 day. In kind it is functional.
For series [12], the system named is Plasmodium berghei. In words: Antiplasmodial activity against Plasmodium berghei ANKA infected in NMRI mouse model assessed as mean survival days at 3 mg/kg, po qd for 4 consecutive day. It counts as functional. Particulars: time 4 day.
Series [13] concerns Plasmodium berghei. In words: Antiplasmodial activity against Plasmodium berghei ANKA infected in NMRI mouse model assessed as reduction in parasitemia administered orally once a day for 4 consecutive days measured at day 7 post infection by flow cytometry analysis. In kind it is functional. Conditions: po, 96 h, time 4 day.
In series [14] the test system is Plasmodium falciparum. In words: Antiplasmodial activity against Plasmodium falciparum 3D70087/N9 infected in NOD-SCID IL2Rgamma null mouse assessed as reduction in parasitemia administered orally on day 3 to 6 post-infection and measured day 7 post infection by TER-119-PE and […] dye based flow cytometry. It counts as functional. Conditions: 3D70087/N9, po, 120 h, time 5 day.

Series [15] has as its system Plasmodium falciparum. In words: Antimalarial activity against Plasmodium falciparum 3D70087/N9 infected in NOD-SCID IL2Rgamma null mouse assessed as blood AUC level require to show 90% reduction in parasitemia administered orally on day 3 to 6 post-infection and measured day 7 post infection. Particulars: time 5.0 day. In kind it is functional, organism-based.
The nature of series [16]: AUC(app) in NMRI mouse plasma infected with Plasmodium berghei ANKA at 3 mg/kg, po qd for 4 consecutive days and measured post last dose. In kind it is ADME, organism-based. Particulars: time 4 day.
Series [17] is described as follows: Cmax(app) in NMRI mouse plasma infected with Plasmodium berghei ANKA at 3 mg/kg, po qd for 4 consecutive days and measured post last dose. It counts as ADME, organism-based. Conditions: time 4 day.
The nature of series [18]: Apparent average plasma concentration in NMRI mouse plasma infected with Plasmodium berghei ANKA at 3 mg/kg, po qd for 4 consecutive days and measured post last dose. Conditions: in vivo, 96 h, time 4 day. In kind it is ADME, organism-based.
Series [19] can be described thus: Half-life in Sprague-dawley rat at 20 mg/kg, po by LC-MS/MS analysis. Conditions: in vivo. In kind it is ADME, organism-based.
Series [20] can be described thus: Half-life in Sprague-dawley rat at 5 mg/kg, iv by LC-MS/MS analysis. It counts as ADME, organism-based. Conditions: in vivo.
Series [21] can be described thus: Clearance in Sprague-dawley rat at 5 mg/kg, iv by LC-MS/MS analysis. In kind it is ADME, organism-based. Particulars: in vivo.
A short description of series [22]: Volume of distribution in Sprague-dawley rat at 5 mg/kg, iv by LC-MS/MS analysis. In kind it is ADME, organism-based. Particulars: in vivo.
Series [23] is described as follows: Oral bioavailability in Sprague-dawley rat at 20 mg/kg by LC-MS/MS analysis. In kind it is ADME, organism-based. Particulars: in vivo.
In series [24] the test system is Plasmodium berghei. In words: Antiplasmodial activity against luciferase expressing Plasmodium berghei sporozoites infected in human HepG2 cells preincubated with compound for 18 hrs followed by plasmodium infection measured after 48 hrs by bioluminescence assay. It counts as functional, organism-based.
For series [25], the system named is Plasmodium falciparum. In words: Antiplasmodial activity against late stage (IV/V) Plasmodium falciparum NF54 gametocytes incubated for 48 hrs by luciferase reporter gene assay. It counts as functional, organism-based. Conditions: NF54, 48 h.
Series [26] has as its system Plasmodium falciparum. In words: Antiplasmodial activity against early stage (II/III) Plasmodium falciparum NF54 gametocytes incubated for 48 hrs by luciferase reporter gene assay. It counts as functional, organism-based. Particulars: NF54, 48 h.
Series [27] relates to Plasmodium falciparum. In words: microbe, parasite or virus in culture. Conditions: NF54, Erythrocyte.
Description: Antiplasmodial activity against multidrug-sensitive Plasmodium falciparum NF54 infected in human erythrocytes assessed as reduction in [3H]hypoxanthine incorporation preincubated for 48 hrs followed by [3H]hypoxanthine addition and measured after 24 hrs by liquid scintillation counting method
Series [28] deals with Plasmodium falciparum. In words: microbe, parasite or virus in culture. Particulars: K1, Erythrocyte.
Description: Antiplasmodial activity against multidrug-resistant Plasmodium falciparum K1 infected in erythrocytes assessed as reduction in [3H]hypoxanthine incorporation preincubated for 48 hrs followed by [3H]hypoxanthine addition and measured after 24 hrs by liquid scintillation counting method
The test system of series [29] is Plasmodium berghei. In words: Antiplasmodial activity against Plasmodium berghei ANKA infected in NMRI mouse model assessed as mean survival days at 30 mg/kg, po qd for 4 consecutive days. In kind it is functional. Particulars: time 4 day.
A short description of series [30]: Half-life in Sprague-dawley rat at 10 mg/kg, po by LC-MS/MS analysis. Conditions: in vivo. It counts as ADME, organism-based.
Series [31] can be described thus: Half-life in Sprague-dawley rat at 3 mg/kg, iv by LC-MS/MS analysis. Particulars: in vivo. In kind it is ADME, organism-based.
A short description of series [32]: Clearance in Sprague-dawley rat at 3 mg/kg, iv by LC-MS/MS analysis. It counts as ADME, organism-based. Conditions: in vivo.
The nature of series [33]: Volume of distribution in Sprague-dawley rat at 3 mg/kg, iv by LC-MS/MS analysis. It counts as ADME, organism-based. Conditions: in vivo.
Series [34] is described as follows: Oral bioavailability in Sprague-dawley rat at 10 mg/kg by LC-MS/MS analysis. In kind it is ADME, organism-based. Conditions: in vivo.
Series [35] can be described thus: Oral bioavailability in Sprague-dawley rat at 15 mg/kg by LC-MS/MS analysis. In kind it is ADME, organism-based. Particulars: in vivo.

In brackets after ≈: the same amount, converted by molar mass.

For the molecule `Nc1ncc(-c2ccc(C(=O)N3CCNCC3)cc2)nc1-c1ccc(C(F)(F)F)cc1`, the selectivity ratio in series [1] was more than 1800; in series [3] it was 1900. Also, the IC50 in [2] worked out at 10000 nM; in series [24], 0.92 nM; in series [25] it was 66 nM; in [26], 134 nM; in series [27], 5.4 nM; in series [28] it was 5.2 nM. Besides, the values for the thermodynamic solubility at 2 h in series [4] and in series [5] were 192 µM (≈ 82.1 µg/mL) and 158 µM (≈ 67.5 µg/mL), respectively. Further, the remaining at 0.5 h, 0.1 µM in [6], in series [7] and in series [8] was more than 90% throughout. Moreover, the Activity in series [9] and in series [10] was more than 99.9% throughout. Besides, the MSD in series [11] is more than 30 days; in [12], 10 days. Besides, the ED90 in [13] turned out to be 1 mg/kg; in [14], 0.25 mg/kg. Further, the AUC in series [15] was less than 65 ng·h/mL. The AUC at 96 h in [16] came out at 5.4 µM·h. In series [17], this molecule gave a peak concentration (Cmax) of 400 nM. Further, in [18], the Cave stood at 200 nM. Besides, the half-life in series [19] is 5.3 h; in series [20], 7.8 h. Moreover, in series [21], the clearance is 10.3 mL/min/kg. In series [22], this molecule came in with a Vd of 5.5 L/kg. The bioavailability in series [23] came to 98%.

Consider `C[C@H]1[C@H](OC(=O)CCC(=O)O)O[C@@H]2O[C@@]3(C)CC[C@H]4[C@H](C)CC[C@@H]1[C@@]24OO3` [ARTESUNATE], for which the MSD in series [29] was determined as 10 days. Also, the 50% inhibitory concentration (IC50) in [27] came to 4 nM; in [28] it was 3 nM.

`O[C@@H](c1cc(C(F)(F)F)nc2c(C(F)(F)F)cccc12)[C@H]1CCCCN1` [(S,R)-MEFLOQUINE]: in series [29], the MSD came to 29 days.

Regarding `Nc1ncc(-c2ccc(C(=O)N3CCC(O)CC3)cc2)nc1-c1ccc(C(F)(F)F)cc1`, the selectivity ratio in series [1] is more than 1800; in [3], more than 1000. Further, the IC50 in series [2] is more than 33000 nM; in series [24] it was 4.1 nM; in [25], 179 nM; in series [26], 603 nM; in [27], 5.4 nM; in series [28], 5 nM. For the same molecule, the thermodynamic solubility at 2 h in series [4] turned out to be 119 µM (≈ 52.7 µg/mL); in series [5], 19 µM (≈ 8.41 µg/mL). Further, the remaining at 0.5 h, 0.1 µM in series [6], in [7] and in series [8] was more than 90% throughout. Also, the Activity in series [9] was 99.9%. For the same molecule, the values for the MSD in series [11] and in series [12] were 11 days and 7 days, respectively. For the same molecule, in series [14], the ED90 was 0.11 mg/kg. In series [15], the AUC was 60 ng·h/mL. Moreover, the results for the half-life in series [30] and in [31] were 5.4 h and 8.1 h, respectively. Besides, in [32], the clearance turned out to be 7.1 mL/min/kg. In addition, in series [33], the Vd came out at 5.1 L/kg. For the same molecule, the bioavailability in [34] worked out at 25%.

In the case of `Nc1ncc(-c2ccc(C(=O)O)cc2)nc1-c1ccc(C(F)(F)F)cc1`, the selectivity ratio in series [1] was more than 1800; in series [3], more than 1000. Moreover, the IC50 is more than 33000 nM in series [2]; 51 nM in series [24]; 729 nM in [25]; 649 nM in series [26]; 33 nM in series [27]; 32 nM in series [28]. In addition, the results for the thermodynamic solubility at 2 h in series [4] and in series [5] were less than 5 µM and 95 µM (≈ 34.1 µg/mL), respectively. The remaining at 0.5 h, 0.1 µM in [6], in [7] and in series [8] was more than 90% in each case. Further, the Activity in series [9] and in series [10] was 99.9% in each case. The MSD is more than 30 days in series [11] and 14 days in series [12]. The ED90 in series [13] is 0.56 mg/kg; in [14], less than 0.1 mg/kg. Also, the AUC in series [15] turned out to be 200 ng·h/mL. This molecule also registered an AUC at 96 h in series [16] of 79.7 µM·h. Besides, the maximum concentration (Cmax) in [17] came to 5000 nM. Besides, the Cave in [18] was found to be 3500 nM. Besides, the bioavailability in series [35] worked out at 94%.

As usually defined, the IC50 is the concentration needed to halve the response being measured. In general, thermodynamic solubility refers to solubility found after equilibrating the solid with the medium. Broadly, the Cmax is the highest concentration seen after dosing. As usually defined, the half-life is how long it takes for the measured level to halve. In general, clearance refers to a measure of how efficiently the substance is removed, as volume per time. Broadly, the Vd is the apparent volume that relates the amount in the body to the concentration in plasma or blood. What is called bioavailability is the share of a dose that reaches the circulation, judged against a reference dose that is usually intravenous.

The values are drawn from ChEMBL document CHEMBL4715789, “Identification of a Potential Antimalarial Drug Candidate from a Series of 2-Aminopyrazines by Optimization of Aqueous Solubility and Potency across the Parasite Life Cycle” (J Med Chem, 2016).
